US6784203B1, “Cytokine production inhibitors” (Cubist Pharmaceuticals, Inc., priority 2001, dated 2004)

Tests used:
IL-1β = IL-1β release from human monocytes (LPS-induced, ELISA); format: cell-based; settings: Monocyte; for IC50: human monocytes, 1 ng/ml LPS, 18 hours, read-out: IC50 LPS-induced IL-β production (monocytes)
From the text: The effect of the compounds of the invention on IL-Iβ release was investigated using a known method (Bakouche, O. et al., (1992), J. Immunol: 148, 84-91). Human monocytes were purified by elutriation from Buffy coats obtained from normal healthy donors after the separation of peripheral blood mononuclear cells (PBMC) on Lymphoprep. The freshly isolated monocytes were suspended in RPMI 1640 supplemented with 5% FBS and exposed to dose ranges of the compound to be tested followed by the addition of 1 ng/ml LPS. Cells were incubated for 18 hours at 37° C. with 5% CO2 and the cell culture supernatants harvested and stored at −70° C. Effects on the production of IL-1β were determined using an ELISA.

TNF-α = TNF-α release from U937 cells (LPS-induced, DELFIA); format: cell-based; settings: Homo sapiens, U-937; for IC50: PMA-pretreated U937 cells, 1 ng/ml LPS, 18 hours, read-out: IC50 LPS-induced TNF production in U937 cells
Protocol: The effect of the compounds of the invention on TNF-α release was investigated using a known method (Lozanski, G. et al., (1992), J. Rheumatol; 19, 921-26).
The human histolytic lymphoma U937 cell line was obtained from a commercial source (ECACC, Salisbury, UK) and maintained in RPMI 1640 medium supplemented with 2 mM L-glutamine and 5% fetal bovine serum. The cells were pretreated with 25 ng/ml PMA for six hours and then exposed to dose ranges of the compound to be tested followed by the addition of 1 ng/ml LPS.
After 18 hours incubation at 37° C. with 5% CO2 the cell culture supernatants were harvested and stored at −70° C., until required for determination of TNF-α secretion by Dissociation Enhanced Lanthanide Fluorescence Immuno Assay (DELFIA). The effect of the compounds on cell cytotoxicity was measured using the tetrazolium salt, XTT (2,3-bis[2-methoxy-4-nitro-5-sulphophenyl]-2H-tetrazolium-5-carboxanilide salt) and effects on protein synthesis were determined by investigation of [^3H] Leucine uptake.

IC50 (IL-1β) [nM]	IC50 (TNF-α) [nM]	SMILES	inhibition at 0.044 µM (IL-1β; Homo sapiens, concentration 0.044 μM) [%]	inhibition at 0.22 µM (IL-1β; Homo sapiens, concentration 0.22 μM) [%]	inhibition at 1.1 µM (IL-1β; Homo sapiens, concentration 1.1 μM) [%]	inhibition at 5.5 µM (IL-1β; Homo sapiens, concentration 5.5 μM) [%]	inhibition at 0.01 µM (TNF-α; concentration 0.01 μM) [%]	inhibition at 0.04 µM (TNF-α; concentration 0.04 μM) [%]	inhibition at 0.17 µM (TNF-α; concentration 0.17 μM) [%]	inhibition at 0.7 µM (TNF-α; concentration 0.7 μM) [%]	inhibition at 2.8 µM (TNF-α; concentration 2.8 μM) [%]	inhibition at 0.5 µM (IL-1β; Homo sapiens, concentration 0.5 μM) [%]	inhibition at 2 µM (IL-1β; Homo sapiens, concentration 2 μM) [%]	inhibition at 20 µM (IL-1β; Homo sapiens, concentration 20 μM) [%]	inhibition at 0.12 µM (TNF-α; concentration 0.12 μM) [%]	inhibition at 0.5 µM (TNF-α; concentration 0.5 μM) [%]	inhibition at 2 µM (TNF-α; concentration 2 μM) [%]	inhibition at 8 µM (TNF-α; concentration 8 μM) [%]
190	80	C/C=C/[C@@H]1OC(=O)C=C[C@@H]1C(=O)/C=C/C(C)=C/[C@@H](C)CCCCCC [R in formula (I) is CH3, 3-((5S,6S)-5,6-dihydro-5-((6S)-4,6-dimethyldodeca-2E,4E-dienoyl)-2H-pyran-2-on-6-yl)-prop-2E-ene]	23	41	72	88	0.85	20	61	90	99	–	–	–	–	–	–	–
2000	2000	CCCCCC[C@H](C)/C=C(C)/C=C/C(=O)[C@H]1C=CC(=O)O[C@H]1/C=C/C(=O)O [R in formula (I) is CO2H, 3-((5S,6S)-5,6-dihydro-5-((6S)-4,6-dimethyldodeca-2E,4E-dienoyl)-2H-pyran-2-on-6-yl)-prop-2E-enoic acid]	–	–	–	–	–	–	–	–	–	14	81.5	99	47	77	100	107
